Read-outs that look alike come from different tables or passages of the source.

Here are results for eight compounds from patent US8569509B2, “Thiazole-4-carboxylic acid esters and thioesters as plant protection agents” (priority 2008, dated 2013).

For data set [1], the system named is Plasmopara viticola. The data set is described as follows: Plasmopara test (grapevine)/protective. The settings on record: grapevine plants, protective, application rate 1 ppm, evaluation 6 days after inoculation. The class given is in vivo. As to the method: Plasmopara Test (Grapevine)/Protective
After the spray coating has dried on, the plants are inoculated with an aqueous spore suspension of Plasmopara viticola and then remain in an incubation cabin at about 20° C. and 100% relative atmospheric humidity for 1 day. The plants are then placed in a greenhouse at about 21° C. and about 90% atmospheric humidity for 4 days. The plants are then moistened and placed in an incubation cabin for 1 day.
Evaluation is carried out 6 days after the inoculation.

Data set [2] in a line: log P determination (HPLC, calibration with unbranched alkan-2-ones). Type of data set: physicochemical. As to the method: The calibration is carried out using unbranched alkan-2-ones (having 3 to 16 carbon atoms) with known log P values (determination of the log P values by the retention times using linear interpolation between two successive alkanones). The lambda-maX values were determined in the maxima of the chromatographic signals using the UV spectra from 200 nm to 400 nm.

In data set [3] the test system is Plasmopara viticola. Kind of data set: Plasmopara test (grapevine)/curative. The class given is in vivo. Particulars: grapevine plants, curative, application rate 100 ppm, evaluation 6 days after inoculation.
The test system of another data set is Phytophthora infestans. Type of data set: in vivo. The settings on record: tomato plants, protective, application rate 10 ppm, evaluation 3 days after inoculation.
Setting [4] is: * LC-MS determination in the acidic range at pH 2.7, mobile phases 0.1% aqueous formic acid and acetonitrile (0.1% formic acid), linear gradient 10% to 95% acetonitrile, reversed-phase C 18 HPLC.

On to `Cc1cc(C(F)(F)F)nn1CC(=O)N1CCC(c2nc(C(=O)OC3CCCc4ccccc43)cs2)CC1` (stereo not drawn) [Ex. 6], for which the Efficacy in % with Plasmopara viticola [1] amounted to 91%; in the data set with Plasmopara viticola [3], 84%. Also, the chromatographic logP in data set [2] (reversed-phase (C18) HPLC column, ** determination in the acidic range, pH 2.3, 0.1% aqueous phosphoric acid and acetonitrile, linear gradient 10% to 95% acetonitrile, read-out: log p) was determined as 4.01.

On to `Cc1cc(C(F)(F)F)nn1CC(=O)N1CCC(c2nc(C(=O)OCc3ccccc3Cl)cs2)CC1` [Ex. 23], for which the Efficacy in % with Phytophthora infestans was found to be 94%. Also, the chromatographic logP in data set [2] (reversed-phase (C18) HPLC column, * LC-MS determination in the acidic range, pH 2.7, 0.1% aqueous formic acid and acetonitrile, linear gradient 10% to 95% acetonitrile, read-out: log p) amounted to 3.7.

For `CCc1cc(C(F)(F)F)n(CC(=O)N2CCC(c3nc(C(=O)OCC4CCCCC4)cs3)CC2)n1` [compound 852], the log p in data set [2] (setting [4]) is given as 3.99*.

For the compound `Cc1cc(C(F)(F)F)nn1CC(=O)N1CCC(c2nc(C(=O)O[C@H]3CCCc4ccccc43)cs2)CC1` [compound 853], the log p in data set [2] (setting [4]) is 4.06*.

`O=C(OC1CCCCC1)c1csc(C2CCN(C(=S)Cn3nc(C(F)F)cc3C(F)F)CC2)n1` [compound 854, Cyclohexyl 2-(1-{2-[3,5-bis(difluoromethyl)-1H-pyrazol-1-yl]ethanethioyl}piperidin-4-yl)-1,3-thiazole-4-carboxylate]: the chromatographic logP was determined as 4.23 in data set [2] (pH 2.7, read-out: log P (pH 2.7)); 4.23 in data set [2] (reversed-phase C18 HPLC column, * LC-MS determination in the acidic range at pH 2.7, mobile phases 0.1% aqueous formic acid and acetonitrile (0.1% formic acid), linear gradient 10% to 95% acetonitrile, reversed-phase C 18 HPLC, read-out: log p).

`Cc1cc(C(F)(F)F)nn1CC(=O)N1CCC(c2nc(C(=O)N(C)C3CCCc4ccccc43)cs2)CC1` (stereo not drawn) [drawing 26, reference compound] gave an Efficacy in % in the data set on Plasmopara viticola [1] of 72%.

`Cc1cc(C(F)(F)F)nn1CC(=O)N1CCC(c2nc(C(=O)N(C)C3CCCc4ccccc43)cs2)CC1` (stereo not drawn) [drawing 28, reference compound] gave an Efficacy in % in the data set on Plasmopara viticola [3] of 37%.

In the data set on Phytophthora infestans, `Cc1cc(C(F)(F)F)nn1CC(=O)N1CCC(c2nc(C(=O)NCc3ccccc3Cl)cs2)CC1` [reference compound] gave an Efficacy in % of 65%.
